This assay concerns the target T1, prostaglandin E2 type 2 (EP2) receptors (Homo sapiens, UniProt P43116).
T1 construct: These full length receptors are used to prepare 293S cells expressing the EP1, EP2, EP3 and EP4 receptors; expressed in transfected cells; membranes
Briefly: Assay for Binding to Prostaglandin E2 Receptors (3H-prostaglandin E2 displacement, membranes of transfected 293S cells). Conditions: concentration displacing 50% of specifically bound 3H-prostaglandin E2, 1 hour at 25° C. The protocol:
Membrane Preparation: All operations are performed at […]. Transfected cells expressing prostaglandin E2 type 1 receptors (EP1), type 2 (EP2), type 3 (EP3) or type 4 (EP4) receptors are harvested and suspended to 2 million cells per ml in Buffer A [50 mM Tris-HCl (pH 7.4), 10 mM MgCl2, 1 mM EDTA, 1 mM Pefabloc peptide, (Boehringer Mannheim Corp., Indianapolis, Ind.), 10 uM Phosporamidon peptide, (Sigma, St. Louis, Mo.), 1 uM pepstatin A peptide, (Sigma, St. Louis, Mo.), 10 uM elastatinal peptide, (Sigma, St. Louis, Mo.), 100 uM antipain peptide, (Sigma, St. Louis, Mo.)]. The cells are lysed by sonification with a Branson Sonifier (Model #250, Branson Ultrasonics Corporation, Danbury, Conn.) in 2 fifteen second bursts. Unlysed cells and debris are removed by centrifugation, at 100×g for 10 min. Membranes are then harvested by centrifugation at 45,000×g for 30 minutes. […] Resuspended membranes are then stored frozen at −80° C. until use.
Binding Assay: Frozen membranes prepared as above are thawed and diluted to 1 mg protein per ml in Buffer A above. […] The membranes with bound ^3H-prostaglandin E2 are trapped by the filter, while the buffer and unbound ^3H-prostaglandin E2 pass through the filter into waste. Each sample is then washed 3 times with 3 ml of [50 mM Tris-HCl (pH 7.4), 10 mM MgCl2, 1 mM EDTA]. The filters are then dried by heating in a microwave oven.
Typically, PCR (polymerase chain reaction) primers corresponding to the 5′ and 3′ ends of the published full length receptor are made according to the well known methods disclosed above and are used in an RT-PCR reaction using the total RNA from human kidney (for EP1), human lung (for EP2), human lung (for EP3) or human lymphocytes (for EP4) as a source. PCR products are cloned by the TA overhang method into pCR2.1 (Invitrogen, Carlsbad, Calif.) and identity of the cloned receptor is confirmed by DNA sequencing.
Stable cell lines expressing the receptor are established following selection of transfected cells with G418.

T1 sequence (P43116 whole entry): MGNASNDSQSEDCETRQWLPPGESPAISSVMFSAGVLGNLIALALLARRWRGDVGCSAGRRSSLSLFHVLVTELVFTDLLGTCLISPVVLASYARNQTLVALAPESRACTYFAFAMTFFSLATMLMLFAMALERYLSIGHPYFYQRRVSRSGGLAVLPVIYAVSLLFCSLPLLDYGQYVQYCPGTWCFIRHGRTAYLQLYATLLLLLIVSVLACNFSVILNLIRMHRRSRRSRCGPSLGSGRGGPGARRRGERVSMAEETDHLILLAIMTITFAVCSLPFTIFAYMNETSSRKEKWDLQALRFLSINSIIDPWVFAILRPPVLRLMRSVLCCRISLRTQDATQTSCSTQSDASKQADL

The term IC50 denotes the point on the concentration scale where inhibition reaches its midpoint. `CCCCc1ccc(CN(Cc2cccc(CC(=O)O)c2)S(=O)(=O)c2cn(C)cn2)cc1` [Example 1r, (3-(((4-Butyl-benzyl)-(1-methyl-1H-imidazole-4-sulfonyl)-amino)-methyl)-Phenyl)-acetic acid] yielded an IC50 of 308 nM.
`O=C(O)Cc1cccc(CN(Cc2ccc(-n3ccnc3)cc2)S(=O)(=O)c2cccnc2)c1` [Example 1s, (3-(((4-Imidazol-1-yl-benzyl)-(pyridine-3-sulfonyl)-amino)-methyl)-phenyl)-acetic acid]: the IC50 amounted to 165 nM.
As for `O=C(O)Cc1cccc(CN(Cc2ccc(-c3ncccn3)cc2)S(=O)(=O)c2cccnc2)c1` [Example 1t, (3-(((Pyridine-3-sulfonyl)-(4-pyrimidin-2-yl-benzyl)-amino)-methyl)-phenyl)-acetic acid], the figure is 8 nM; as for `O=C(O)Cc1cccc(CN(Cc2ccc(-c3nccs3)cc2)S(=O)(=O)c2cccnc2)c1` [Example 1u, (3-(((Pyridine-3-sulfonyl)-(4-thiazol-2-yl-benzyl)-amino)-methyl)-phenyl)-acetic acid], 7 nM.
Consider `Cn1cnc(S(=O)(=O)N(Cc2ccc(-c3nccs3)cc2)Cc2cccc(CC(=O)O)c2)c1` [Example 1v, (3-(((1-Methyl-1H-imidazole-4-sulfonyl)-(4-thiazol-2-yl-benzyl)-amino)-methyl)-phenyl)-acetic acid], for which the IC50 was 9 nM.
As for `CN(C)c1ccc(CN(Cc2cccc(CC(=O)O)c2)S(=O)(=O)c2cccnc2)cc1` [Example 1w, (3-(((4-Dimethylamino-benzyl)-(pyridine-3-sulfonyl)-amino]-methyl)-phenyl)-acetic acid], the figure is 24 nM; as for `O=C(O)COc1cccc(CN(Cc2ccc(C3CCCCC3)cc2)S(=O)(=O)c2cccnc2)c1` [Example 1x, (3-(((4-Cyclohexyl-benzyl)-(pyridine-3-sulfonyl)-amino)-methyl)-phenoxy)-acetic acid], 160 nM; as for `O=C(O)COc1cccc(CN(CCOc2cc(Cl)cc(Cl)c2)S(=O)(=O)c2cccnc2)c1` [Example 1y, (3-(((2-(3.5-Dichloro-phenoxy)-ethyl)-(pyridine-3-sulfonyl)-amino)-methyl)-phenoxy)-acetic acid], 13 nM.
As for `CN(C)c1ccc(CN(Cc2cccc(OCC(=O)O)c2)S(=O)(=O)c2cccnc2)cc1` [Example 1z, (3-(((4-Dimethylamino-benzyl)-(pyridine-3-sulfonyl)-amino)-methyl)-phenoxy)-acetic acid], the IC50 stood at 19 nM. The IC50 values of the last two compounds are within 1.5-fold of each other.
Then `O=C(O)Cc1cccc(CN(CCOc2cccc(Cl)c2)S(=O)(=O)c2cccnc2)c1` [Example 2, (3-(((2-(3-Chloro-phenoxy)-ethyl)-(Pyridine-3-sulfonyl)-amino]-methyl)-phenyl)-acetic acid], with 45 nM; and `O=C(O)Cc1cccc(CN(C/C=C/c2cc(Cl)cc(Cl)c2)S(=O)(=O)c2cccnc2)c1` [Example 2a, Trans-(3-(((3-(3,5-Dichloro-phenyl)-allyl)-(pyridine-3-sulfonyl)-amino)-methyl)-phenyl)-acetic acid], with 37 nM; and `O=C(O)Cc1cccc(CN(CCOc2cc(Cl)cc(Cl)c2)S(=O)(=O)c2cccnc2)c1` [Example 2b, (3-(((2-(3.5-Dichloro-phenoxy)-ethyl)-(pyridine-3-sulfonyl)-amino)-methyl)-phenyl)-acetic acid], with 385 nM.
Then `O=C(O)c1ccc(CCCN(CCSc2cccc(Cl)c2)S(=O)(=O)c2cccnc2)s1` [Example 3a, 5-(3-((2-(3-Chloro-phenylsulfanyl)-ethyl)-(pyridine-3-sulfonyl)-amino)-propyl) thiophene-2-carboxylic acid], with 440 nM; and `O=C(O)COc1cccc(CN(Cc2ccc(-c3nccs3)cc2)S(=O)(=O)c2cccnc2)c1` [Example 3b, (3-(((Pyridine-3-sulfonyl)-(4-thiazol-2-yl-benzyl)-amino)-methyl)-phenoxy)-acetic acid.2TFA], with 7.83 nM; and `O=C(O)c1ccc(CCCN(CCCc2cccc(Cl)c2)S(=O)(=O)c2cccnc2)s1` [Example 4, 5-(3-((3-(3-Chloro-phenyl)-propyl)-(pyridine-3-sulfonyl)-amino)-propyl)-thiophene-2-carboxylic acid], with 225 nM.
As to `COc1ccc(S(=O)(=O)N(CCCc2cccc(Cl)c2)CCCc2ccc(C(=O)O)s2)cc1` [Example 4a, 5-(3-((3-(3-Chloro-phenyl)-propyl)-(4-methoxy-benzenesulfonyl)-amino)-propyl)-thiophene-2-carboxylic acid], the IC50 is 795 nM.
For the compound `O=C(O)c1ccc(CCCN(CCCc2cccc(Cl)c2)S(=O)(=O)c2cccc3nsnc23)s1` [Example 4b, 5-(3-((Benzo[1,2.5]thiadiazole-4-sulfonyl)-(3-(3-chloro-phenyl)-propyl)-amino)-propyl)-thiophene-2-carboxylic acid], the IC50 is 440 nM.
Then `O=C(O)c1ccc(CCCN(CCCc2cccc(Cl)c2)S(=O)(=O)Cc2ccccc2)s1` [Example 4d, 5-(3-((3-(3-Chloro-phenyl)-propyl)-phenylmethanesulfonyl-amino)-propyl)-thiophene-2-carboxylic acid], with 175 nM; and `O=C(O)c1ccc(CCCN(CCCc2cccc(Cl)c2)S(=O)(=O)c2cccnc2)o1` [Example 4e, 5-(3-((3-(3-Chloro-phenyl)-propyl)-(pyridine-3-sulfonyl)-amino)-propyl)-furan-2-carboxylic acid], with 410 nM.
The compound `O=C(O)c1ccc(CCCN(CCCc2cccc(Cl)c2)S(=O)(=O)c2ccc3ccccc3c2)s1` [Example 4f, 5-(3-((3-(3-Chloro-phenyl)-propyl)-(naphthalene-2-sulfonyl)-amino)-propyl)-thiophene-2-carboxylic acid] came in with an IC50 of 705 nM.
In turn, `O=C(O)c1ccc(CCCN(CCCc2cccc(Cl)c2)S(=O)(=O)c2cccc3ccccc23)s1` [Example 4g, 5-(3-((3-(3-Chloro-phenyl)-propyl)-(naphthalene-1-sulfonyl)-amino)-propyl)-thiophene-2-carboxylic acid] came in with an IC50 of 720 nM.
`CC(=O)Nc1nc(C)c(S(=O)(=O)N(CCCc2cccc(Cl)c2)CCCc2ccc(C(=O)O)s2)s1` [Example 4h, 5-(3-((2-Acetylamino-4-methyl-thiazole-5-sulfonyl)-(3-(3-chloro-phenyl)-propyl)-amino)-propyl)-thiophene-2-carboxylic acid] showed an IC50 of 210 nM.
The compound `O=C(O)c1ccc(CCCN(CCCc2cccc(Cl)c2)C(=O)c2cccnc2)s1` [Example 5, 5-(3-((3-(3-Chloro-phenyl)-propyl)-(pyridine-3-carbonyl)-amino)-propyl)-thiophene-2-carboxylic acid] yielded an IC50 of 980 nM.
The compound `O=C(O)c1ccc(CCCN(CCCc2cccc(Cl)c2)C(=O)Cc2ccccn2)s1` [Example 5a, 5-(3-((3-(3-Chloro-phenyl)-propyl)-(pyridin-2-yl-acetyl)-amino)-propyl)-thiophene-2-carboxylic acid] gave an IC50 of 355 nM.
As for `O=C(O)c1ccc(CCCN(CCCc2cccc(Cl)c2)C(=O)Cc2cccnc2)s1` [Example 5b, 5-(3-((3-(3-Chloro-phenyl)-propyl)-(Pyridin-3-yl-acetyl)-amino)-propyl)-thiophene-2-carboxylic acid], the IC50 was found to be 640 nM. This IC50 lies about 1.8-fold higher than the previous one.
Consider `O=C(O)c1ccc(CCCN(CCCc2cccc(Cl)c2)S(=O)(=O)c2ccccc2Cl)s1` [Example 6, 5-(3-((2-Chloro-benzenesulfonyl)-(3-(3-chloro-phenyl)-propyl)-amino)-propyl)-thiophene-2-carboxylic acid], for which the IC50 was 315 nM.
On to `Cc1ccc(C)c(S(=O)(=O)N(CCCc2cccc(Cl)c2)CCCc2ccc(C(=O)O)s2)c1` [Example 6a, 5-(3-((3-(3-Chloro-phenyl)-propyl)-(2,5-dimethyl-benzenesulfonyl)-amino)-propyl)-thiophene-2 carboxylic acid], for which the IC50 was determined as 325 nM.
Consider `O=C(O)c1ccc(CCCN(CCCc2cccc(Cl)c2)S(=O)(=O)CCCCNC(=O)c2ccccc2C(=O)O)s1` [Example 6c, 5-(3-((4-(2-Carboxy-benzoylamino)-butane-1-sulfonyl)-(3-(3-chloro-phenyl)-propyl)-amino)-propyl)-thiophene-2-carboxylic acid], for which the IC50 came to 300 nM.
Then `O=C(O)c1ccc(CCCN(CCCc2cccc(Cl)c2)S(=O)(=O)c2ccc(-n3ncc(=O)[nH]c3=O)cc2)s1` [Example 6d, 5-(3-((3-(3-Chloro-phenyl)-propyl)-(4-(3,5-dioxo-4,5-dihydro-3H-[1,2,4]triazin-2-yl)-benzenesulfonyl)-amino)-propyl)-thiophene-2-carboxylic acid], with 170 nM.

For the origin of these results see patent publication US20050203086A1, “Methods of treatment using an EP2 selective receptor agonist” (Pfizer Inc., priority 2004, published 2005).
